Assay results reported in ChEMBL document CHEMBL1127639, “Structural features important for sigma 1 receptor binding” (J Med Chem, 1994).

Assay: Binding affinity against [3H]-3-PPP labelled sigma sites

Ki: 7.4 nM
SMILES: CN(CCc1ccccc1)CCN1CCCC1
